Patent EP4711361A1, “NITROGEN-CONTAINING HETEROCYCLIC COMPOUND AND USE THEREOF” (Jiangsu Deyuan Pharmaceutical Co.,Ltd., priority 2023, dated 2024)

Tests used:
[1] = test system: MDR1-MDCKII cells; assay: Permeability test (MDR1-MDCKII monolayer, bidirectional transport); assay type: in vitro ADME; details: 2 µM
Experimental: (§1) Experimental objective: The permeability and efflux ratio of the compound of the present disclosure were determined using the MDR1-MDCKII monolayer cell model to assess its membrane permeability and potential for P-gp-mediated efflux transport.
(§2) Experimental protocol: MDR1-MDCKII cells (obtained from the Netherlands Cancer Institute) were seeded in 96-well plates (obtained from Corning) at a cell density of 3.33 × 10^5 cells/mL and cultured for 4 to 7 days to form confluent cell monolayers. Hank's balanced salt solution containing 10 mM HEPES (pH 7.40) was used as the transport buffer. The test compound was evaluated for bidirectional transport at a concentration of 2 µM, with the DMSO concentration in the incubation system maintained below 1%. After adding the samples, the cell plate was incubated at 37±1°C, 5% CO2, and saturated humidity for 2.5 hours. All samples were quantitatively analyzed using the LC-MS/MS method. The apparent permeability coefficient (Papp, cm/s) and efflux ratio (ER) were calculated using the following formula. Apparent permeability coefficient (Papp, cm/s) was calculated using the following formula: Papp = (dCr/dt) x Vr / (A x C0). Herein, dCr/dt represents the cumulative concentration of the compound at the receiving end per unit time (µM/s); Vr is the volume of the solution at the receiving end (with solution volumes at the apical and basolateral ends being 0.075 mL and 0.250 mL, respectively); A is the relative surface area of the cell monolayer (0.143 cm^2); C0 is the initial concentration of the test substance at the dosing end (µM) or the peak area ratio of the reference substance. The efflux ratio was calculated using the following formula: ER = Papp (BA)/ Papp (AB). Table 7: Permeability test results of compounds

[2] = In vivo pharmacokinetics study in rats; details: male SD rats, oral 2 mg/kg
[3] = In vitro liver microsome metabolic stability study; details: human liver microsomes 0.5 mg/mL, 1 µM compound, up to 60 minutes
[4] = In vivo pharmacokinetic study in cynomolgus monkeys; details: male cynomolgus monkeys, oral 3 mg/kg
[5] = Plasma protein binding rate test (equilibrium dialysis), human plasma; details: 2 µM, equilibrium dialysis 4 hours, 37°C
[6] = Plasma protein binding rate test (equilibrium dialysis), SD rat plasma; details: 2 µM, equilibrium dialysis 4 hours, 37°C
[7] = Plasma protein binding rate test (equilibrium dialysis), cynomolgus monkey plasma; details: 2 µM, equilibrium dialysis 4 hours, 37°C
[8] = Permeability test (MDR1-MDCKII monolayer, bidirectional transport); assay type: in vitro ADME; details: dog; for efflux ratio at 2.5 h, 2 µM: MDCK-MDR1, pH 7.4, ER = Papp (BA)/ Papp (AB); for Papp A→B at 2.5 h, 2 µM: MDCK-MDR1, pH 7.4, pH 7.40, 2.5 hours, A to B, read-out: Apparent permeability coefficient (Papp (AB), 10^-6 cm/s)
Experimental: as §1, §2

[9] = in vivo; details: cynomolgus monkey, po, 1 mg/kg
[10] = in vitro; details: cynomolgus monkey, plasma
[11] = in vitro; details: human, plasma

| SMILES | efflux ratio at 2.5 h, 2 µM [8] | Papp A→B at 2.5 h, 2 µM [8] [×10⁻⁶ cm/s] | AUC(0-t) at 24 h [9] [µM·h] | Cmax [9] [nM] | bioavailability [9] [%] | half-life [9] [min] | fraction unbound at 4 h, 2 µM [10] | fraction unbound at 4 h, 2 µM [11] | other results |
| --- | --- | --- | --- | --- | --- | --- | --- | --- | --- |
| CCC(=O)N[C@@H]1CCCc2c(-c3ccc4c(ccc(=O)n4C)c3)cncc21 (single isomer, unassigned) [Compound 001] | – | – | – | – | – | – | – | – | Efflux ratio (ER) ([1]; ER = Papp (BA)/ Papp (AB), 150 min): 1.76; Apparent permeability coefficient (Papp (AB), 10^-6 cm/s) ([1]; pH 7.40, 2.5 hours, A to B): 17.2 10^-6 cm/s; F (%) [2]: 80%; AUC0-24h ([2]; plasma): 59.097 µM·h; Cmax ([2]; plasma): 7.63 µM; T1/2 ([2]; plasma): 4.61 h; Intrinsic hepatic clearance CLint(liver) [3]: <8.6 mL/min/kg; F (%) [4]: 120%; AUC0-24h ([4]; plasma): 23.174 µM·h; Cmax ([4]; plasma): 4 µM; T1/2 ([4]; plasma): 4.99 h; Human plasma protein binding rate (%) [5]: 76.1%; Plasma protein binding rate (%) in SD rats [6]: 92.1%; Plasma protein binding rate (%) in cynomolgus monkeys [7]: 74.6% |
| CCC(=O)NC1CCCc2c(-c3cc4c(s3)N(C)C(=O)CC4)cncc21 (single isomer, unassigned) [Compound 017] | 0.95 | 23.2 | 7.29 | 1070 | 66 | 318 | 0.219 | 0.173 | – |
| CCC(=O)NC1CCCc2c(-c3cc4ccc(=O)n(C)c4s3)cncc21 (single isomer, unassigned) [Compound 023] | 1.28 | 20.8 | 8.92 | 1320 | 76.5 | 288 | 0.31 | 0.304 | – |
